pIC50, pKi: −log10 of the molar value. Read-outs that look alike come from different tables or passages of the source.
Assays:
Nicotinic, human α4β2 = Nicotinic, human α4β2 (Homo sapiens, UniProt P17787+P43681); experiment: Competition binding, human α4β2 nicotinic receptor ([3H]nicotine)
Protocol: (§1) SH-EP1-human α4β2 (Eaton et al., 2003), cell lines were obtained from Dr. Ron Lukas (Barrow Neurological Institute). Cells were maintained in proliferative growth phase in Dulbecco's modified Eagle's medium (Invitrogen, Carlsbad, Calif.) with 10% horse serum (Invitrogen), 5% fetal bovine serum (HyClone, Logan Utah), 1 mM sodium pyruvate, 4 mM L-glutamine. For maintenance of stable transfectants, the α4β2 cell media was supplemented with 0.25 mg/mL zeocin and 0.13 mg/mL hygromycin B.
(§2) Cells were harvested in ice-cold PBS, pH 7.4, then homogenized with a Polytron (Kinematica GmbH, Switzerland). Homogenates were centrifuged at 40,000 g for 20 minutes (4° C.). The pellet was re-suspended in PBS and protein concentration determined using the Pierce BCA Protein Assay kit (Pierce Biotechnology, Rockford, Ill.).
(§3) Binding to nicotinic receptors was assayed on membranes using standard methods adapted from published procedures (Lippiello and Fernandes 1986; Davies et al., 1999). In brief, membranes were reconstituted from frozen stocks and incubated for 2 h on ice in 150 μl assay buffer (50 mM Tris, 154 mM NaCl, pH 7.4) in the presence of competitor compound (0.001 nM to 100 μM) and radioligand. [^3H]-nicotine (L-(−)-[N-methyl-^3H]-nicotine, 69.5 Ci/mmol, Perkin-Elmer Life Sciences, Waltham, Mass.) was used for human α4β2 binding studies. [^3H]-epibatidine (52 Ci/mmol, Perkin-Elmer Life Sciences) was used for binding studies at the other nicotinic receptor subtypes. Incubation was terminated by rapid filtration on a multimanifold tissue harvester (Brandel, Gaithersburg, Md.) using GF/B filters presoaked in 0.33% polyethyleneimine (w/v) to reduce non-specific binding. Filters were washed 3 times with ice-cold assay buffer and the retained radioactivity was determined by liquid scintillation counting.
(§4) Binding data were expressed as percent total control binding. Replicates for each point were averaged and plotted against the log of drug concentration. The IC50 (concentration of the compound that produces 50% inhibition of binding) was determined by least squares non-linear regression using GraphPad Prism software (GraphPAD, San Diego, Calif.). Ki was calculated using the Cheng-Prusoff equation (Cheng and Prusoff, 1973).

Nicotinic, human α3β4 = target: T1, Nicotinic, human α3β4 (Homo sapiens, UniProt P30926+P32297); experiment: Competition binding, human α3β4 nicotinic receptor (CHO human α3β4 membranes)
T1 construct: host or cells: CHO
Protocol: (§5) CHO-human α3β4 cells (obtained from ChanTest, Cleveland, Ohio, catalog #CT6021) were maintained in proliferative growth phase in Ham's F12 (VWR) with 10% fetal bovine serum (Invitrogen), 0.25 mg/mL geneticin; 0.4 mg/ml zeocin. The amino acid sequences encoded by the transfected cDNA constructs used to generate the CHO-human α3β4 cells are identical to the translated sequences for GenBank accession numbers NM_000743.2 and NM_000750.3, respectively.
as §2, §3, §4

human α4β2 (LS) = human α4β2 (LS) (Homo sapiens, UniProt P17787+P43681); experiment: Calcium flux inhibition, SH-EP1-human α4β2 maintained at 37° C. (LS); format: cell-based; conditions: for Emax: read-out: Human α4β2 Ca Flux Imax [37C/HS]
Protocol: as §1
Forty-eight hours prior to each experiment, cells were plated in 96 well black-walled, clear bottom plates (Corning, Corning, N.Y.) at 60-100,000 cells/well. On the day of the experiment, growth medium was gently removed, 200 μL 1×FLIPR Calcium 4 Assay reagent (Molecular Devices, Sunnyvale, Calif.) in assay buffer (20 mM HEPES, 7 mM TRIS base, 4 mM CaCl2, 5 mM D-glucose, 0.8 mM MgSO4, 5 mM KCl, 0.8 mM MgCl2, 120 mM N-methyl D-glucamine, 20 mM NaCl, pH 7.4 for SH-EP1-human α4β2 cells or 10 mM HEPES, 2.5 mM CaCl2, 5.6 mM D-glucose, 0.8 mM MgSO4, 5.3 mM KCl, 138 mM NaCl, pH 7.4 with TRIS-base for all other cell lines) was added to each well and plates were incubated at 37° C. for 1 hour (29° C. for the 29° C.-treated SH-EP1-human α4β2 cells). For inhibition studies, competitor compound (10 pM-10 μM) was added at the time of dye addition. The plates were removed from the incubator and allowed to equilibrate to room temperature. Plates were transferred to a FLIPR Tetra fluorometric imaging plate reader (Molecular Devices) for addition of compound and monitoring of fluorescence (excitation 485 nm, emission 525 nm). The amount of calcium flux was compared to both a positive (nicotine) and negative control (buffer alone). The positive control was defined as 100% response and the results of the test compounds were expressed as a percentage of the positive control. […] (LS), and 20 μM for SH-SY5Y cells or CHO_human α3β4.

human α3β4 = target: T2, human α3β4 (Homo sapiens, UniProt P30926+P32297); experiment: Calcium flux inhibition, CHO-human α3β4 cells; format: cell-based
T2 construct: host or cells: CHO
Protocol: as §5
(§6) Forty-eight hours prior to each experiment, cells were plated in 96 well black-walled, clear bottom plates (Corning, Corning, N.Y.) at 60-100,000 cells/well. On the day of the experiment, growth medium was gently removed, 200 μL 1×FLIPR Calcium 4 Assay reagent (Molecular Devices, Sunnyvale, Calif.) in assay buffer (20 mM HEPES, 7 mM TRIS base, 4 mM CaCl2, 5 mM D-glucose, 0.8 mM MgSO4, 5 mM KCl, 0.8 mM MgCl2, 120 mM N-methyl D-glucamine, 20 mM NaCl, pH 7.4 for SH-EP1-human α4β2 cells or 10 mM HEPES, 2.5 mM CaCl2, 5.6 mM D-glucose, 0.8 mM MgSO4, 5.3 mM KCl, 138 mM NaCl, pH 7.4 with TRIS-base for all other cell lines) was added to each well and plates were incubated at 37° C. for 1 hour (29° C. for the 29° C.-treated SH-EP1-human α4β2 cells). For inhibition studies, competitor compound (10 pM-10 μM) was added at the time of dye addition. The plates were removed from the incubator and allowed to equilibrate to room temperature. Plates were transferred to a FLIPR Tetra fluorometric imaging plate reader (Molecular Devices) for addition of compound and monitoring of fluorescence (excitation 485 nm, emission 525 nm). The amount of calcium flux was compared to both a positive (nicotine) and negative control (buffer alone). The positive control was defined as 100% response and the results of the test compounds were expressed as a percentage of the positive control. For inhibition studies, the agonist nicotine was used at concentrations of 1 μM for SH-EP1-human α4β2 treated at 29° C. (HS), 10 μM for SH-EP1-human α4β2 maintained at 37° C. (LS), and 20 μM for SH-SY5Y cells or CHO_human α3β4.

human α4β2 (HS) = human α4β2 (HS) (Homo sapiens, UniProt P17787+P43681); experiment: Calcium flux inhibition, SH-EP1-human α4β2 treated at 29° C. (HS); format: cell-based
Protocol: as §1, §6

[1] = target: T3, Human Ganglion (SH-SY5Y cells) (Homo sapiens, UniProt P30532+P30926+P32297); experiment: Calcium flux inhibition, human ganglion (SH-SY5Y cells); format: cell-based
T3 construct: endogenous in cells; host or cells: SH-SY5Y human neuroblastoma cells
Protocol: as §6

Nicotinic, human α3β4α5 = target: T4, Nicotinic, human α3β4α5 (Homo sapiens, UniProt P30532+P30926+P32297); experiment: Competition binding, human ganglion nicotinic receptor (SH-SY5Y membranes)
T4 construct: endogenous in cells; host or cells: SH-SY5Y human neuroblastoma cells
Protocol: as §2, §3, §4

[2] = SH-EP1-Human α4β2 cell membranes, [3H]nicotine 2 nM, read-out: Human α4β2 Ki
[3] = CHO Human α3β4 membranes, [3H]epibatidine 1 nM, read-out: Human CHO α3β4 Ki
[4] = cells maintained at 37° C. (LS), nicotine 10 μM, read-out: Human α4β2 Ca Flux IC50 [37C/LS]
[5] = nicotine 20 μM, read-out: Human CHO α3β4 Ca Flux IC50
[6] = cells maintained at 37° C., nicotine 10 μM
[7] = 29° C.-treated cells (HS), nicotine 1 μM
[8] = SH-SY5Y cells, nicotine 20 μM, read-out: Human Ganglion Ca Flux IC50
[9] = 29° C.-treated cells (HS), nicotine 1 μM, read-out: Human α4β2 Ca Flux IC50 [29C/HS]

Row | Structure (SMILES) | pKi (Nicotinic, human α4β2; [2]) | pKi (Nicotinic, human α3β4; [3]) | pIC50 (human α4β2 (LS); [4]) | Emax (human α4β2 (LS)) [%] | Human CHO α3β4 Ca Flux Imax (human α3β4; nicotine 20 μM) [% inh] | pIC50 (human α3β4; [5]) | Emax (human α4β2 (LS); [6]) [%] | pKi (Nicotinic, human α4β2) | pKi (Nicotinic, human α3β4) | pIC50 (human α4β2 (HS)) | Human α4β2 Ca Flux Imax [29C/HS] (human α4β2 (HS); [7]) [% inh] | pIC50 (human α4β2 (LS)) | pIC50 (human α3β4) | Human Ganglion Ca Flux Imax ([1]; SH-SY5Y cells, nicotine 20 μM) [% inh] | pIC50 [1, 8] | pKi (Nicotinic, human α3β4α5) | pIC50 (human α4β2 (HS); [9]) | pIC50 [1] | pKi (Nicotinic, human α3β4α5; SH-SY5Y cell membranes (α3β4α5), [3H]epibatidine 1 nM, read-out: Human Ganglion Ki)
1 | CC[C@@]12CCC[C@]1(N(C)C)[C@H]1CC[C@@H]2C1 | 4.48 | 4.04 | 6.15 | 98 | 95 | 6.62 | – | – | – | – | – | – | – | – | – | – | – | – | –
2 | C[N+](C)(C)[C@@]12CCC[C@@H]1[C@H]1CC[C@@H]2C1 | 5.16 | – | 6.59 | – | 94 | 6.03 | 98 | – | – | – | – | – | – | – | – | – | – | – | –
3 | CCC12CCCC1(NC)C1CCC2C1 (stereo not drawn) | – | – | – | 97 | 97 | – | – | 4.47 | 4.12 | 6.37 | 100 | 6.77 | 6.66 | 98 | 7.70 | – | – | – | –
4 | CN[C@@]12CCC[C@@H]1[C@H]1CC[C@@H]2C1 | – | – | – | 96 | 97 | – | – | 4.29 | 4.10 | 6.42 | 97 | 6.42 | 6.18 | 95 | 6.31 | 4.15 | – | – | –
5 | CCCCC12CCCC1(NC)C1CCC2C1 (stereo not drawn) | 4.14 | 4.13 | 6.85 | 96 | 96 | 6.52 | – | – | – | – | 99 | – | – | 93 | – | – | 6.34 | 7.62 | –
6 | CN(C)[C@]12CCC[C@H]1[C@@H]1CC[C@H]2C1 | 4.33 | 4.80 | 6.39 | – | 97 | 6.64 | 98 | – | – | – | 99 | – | – | – | – | – | 6.39 | – | –
7 | CCCC12CCCC1(NC)C1CCC2C1 (stereo not drawn) | – | – | – | 96 | 96 | – | – | 4.54 | 4.14 | 6.68 | 100 | 6.77 | 6.89 | 98 | 7.52 | 4.28 | – | – | –
8 | CNC12CCCC1(CO)C1CCC2C1 (stereo not drawn) | 4.51 | – | 6.42 | – | – | – | 90 | – | – | – | 99 | – | – | 91 | 6.70 | – | 6.43 | – | 4.05
9 | CC[C@]12CCC[C@@]1(NC)[C@@H]1CC[C@H]2C1 | – | – | – | 94 | 97 | – | – | 4.49 | 4.28 | 6.29 | 100 | 5.16 | 6.92 | – | – | – | – | – | –
10 | CN[C@]12CCC[C@H]1[C@@H]1CC[C@H]2C1 | – | – | – | 96 | 97 | – | – | 4.48 | – | 6.26 | 96 | 6.47 | 6.31 | 95 | 6.42 | – | – | – | –
11 | CC[C@]12CCC[C@@]1(N(C)C)[C@@H]1CC[C@H]2C1 | 4.19 | 4.15 | 6.43 | 99 | 96 | 6.70 | – | – | – | – | – | – | – | – | – | – | – | – | –
12 | CN(C)[C@@]12CCC[C@@H]1[C@H]1CC[C@@H]2C1 | 4.70 | 4.89 | 6.30 | – | 96 | 6.72 | 98 | – | – | – | 96 | – | – | – | – | – | 6.29 | – | –
13 | [2H]C([2H])NC12CCCC1(C([2H])([2H])[2H])C1CCC2C1 (stereo not drawn) | 4.59 | – | 7.12 | – | – | – | 95 | – | – | – | – | – | – | 99 | 7.08 | – | – | – | –
14 | C[N+](C)(C)[C@]12CCC[C@H]1[C@@H]1CC[C@H]2C1 | 5.07 | 4.89 | 6.42 | – | – | – | 100 | – | – | – | – | – | – | 97 | 5.74 | – | – | – | –

Source: patent US20140288185A1, “NICOTINIC RECEPTOR NON-COMPETITIVE MODULATORS” (Targacept, Inc., priority 2011, published 2014)
